The assay concerns bleomycin-induced pulmonary fibrosis. Description: Bleomycin mouse model of pulmonary fibrosis, Example 3 (itraconazole inhalation, oral nintedanib). In kind it is in vivo, ICR mice. Conditions: oral 60 mg/kg. As to the method: Iodine was used to disinfect the neck hair and skin. Later, the neck skin was cut to expose the trachea. 50 μL of PBS or bleomycin hydrochloride (Hisun Pfizer pharmaceutical Co., LTD, 17001711) in 0.9% sodium chloride solution ([…], i.e., […]) was quickly sprayed as mist into the trachea of mice from the Control Group or the other group with a high pressure syringe connected to a spraying nozzle. At the end, the skin was sutured and disinfected, and the mice were returned to the cages for recovery. On Day 5, the mice treated with bleomycin were divided into six groups at random (referred to as Group 2-7). […] For itraconazole inhalation, each mouse was placed in a 16×13×9 (length×width×height in cm) cabinet. Itraconazole preparation of 5, 15 or 50 mg/mL was sprayed into the cabinet with a compressed nebulizer. [table] Twenty-four hours after the last drug administration, the mice were sacrificed by dislocation of cervical vertebra. The trachea was isolated and intubated. The upper lobe of the left lung was ligated. […] The total number of leukocytes in the BALF was counted. The BALF was centrifuged at 2000 rpm/min for 10 min at 4° C. The supernatant was collected and stored at -80° C. for cytokine measurement, and the deposit was smeared on glass slides. After air drying at room temperature, the slides were subjected to Wright's-Giemsa staining. The number of neutrophils, lymphocytes and macrophages were counted under a microscope from a total of 200 cells for each slide. The upper left lung tissues were used for measuring the level of hydroxyproline, and the lower part was fixed in formalin for H&E staining and Masson's staining. The level of hydroxyproline in the lung tissues was measured using a Hydroxyproline Assay kit (Nanjing JianCheng Bioengineering Institute). The level of TGF-β1 in 100 μL BALF was determined using a mouse TGF-β1 ELISA kit (Beijing 4A Biotech Co., LTD), and the level of type I collagen (Col I) in 100 μL BALF was determined using a mouse Collagen Type I ELISA kit (CUSABIO BIOTEH). […] Then, the lung tissues were sectioned into 4 μm-thick sections for H&E staining and Masson's staining. H&E staining was used to observe the alveolar hyperemia, the infiltration or aggregation of neutrophils in the alveolar space or the vascular wall, and the thickening of alveolar septum or the formation of hyaline membranes. The degree of fibrosis in the lesions with H&E staining was observed under microscope and scored using a semi-quantitative Ashcroft scoring criteria below. Grade 0: Normal tracheal bronchoalveolar structures; Grade 1: Minimal fibrous thickening of alveolar or bronchiolar walls; Grade 3: Moderate thickening of walls without obvious damage to lung architecture; Grade 5: Increased fibrosis with definite damage to lung structure and formation of fibrous bands or small fibrous masses; Grade 7: Severe distortion of structure and large fibrous areas, with honeycomb lung placed in this category; Grade 8: Total fibrous obliteration. The severity of fibrosis between two odd numbers was considered as the corresponding even number. On the other hand, IOD value of positive Masson's staining site was measured by Image pro software for analysis. The data were tested for the homogeneity of variance. If the variance was homogenous (p>0.05), a single factor variance analysis was performed. The Dunnet test was performed for the differences between each dose group and the control group. If the variance was heterogenous (p 0.05), a non-parametric test was conducted, followed by the […] test for examining the differences between each dose group and the control group. The difference was considered significant when p<0.05.

Regarding `COC(=O)c1ccc2c(c1)NC(=O)/C2=C(\Nc1ccc(N(C)C(=O)CN2CCN(C)CC2)cc1)c1ccccc1` [nintedanib], the “level of Col I in the BALF” value is listed as “did not reduce”; the “number of lymphocytes and macrophages in the BALF” value is recorded as “had no effects”; the “pathological changes of lung tissues (H&E staining)” value is “significantly reduced the infiltration of neutrophils and macrophages and the thickening of alveolar septum”. Under “p<0.001”, the “collagen deposition in the lung tissues (Masson's staining IOD)” value was “significantly reduced the collagen deposition” and the “level of TGF-β1 in the BALF” value is “significantly reduced”. For the same compound, where the note is “p<0.01”, the “level of hydroxyproline in the lung tissues” value is listed as “significantly reduced”, the “neutrophils in the BALF” value is recorded as “significantly reduced”, the “semi-quantitative Ashcroft Score” value is “significantly reduced the pulmonary fibrosis” and the “total number of leukocytes in the BALF” value was “significantly reduced”.
